Test results reported in PMC4552634, “A New Set of Chemical Starting Points with Plasmodium falciparum Transmission-Blocking Potential for Antimalarial Drug Discovery” (PLoS ONE, 2015).
Read-outs that look alike come from different tables or passages of the source. One block for each compound: values may come before it.

What was measured:
[1] = tested on: P. falciparum stage V gametocytes; assay: Gametocytocidal ATP bioluminescence assay (single point 5 μM and 1 μM, dose-response); format: cell-based, Plasmodium falciparum; settings: for Ratio IC50 HepG2/IC50 P. falciparum: IC50 HepG2 divided by IC50 P. falciparum gametocytes
[2] = tested on: luciferase reaction (BacTiter-Glo); assay: Interference assay (inhibition of the BacTiter-Glo luciferase reaction); format: biochemical; set-up: concentration or dose not given beside the values; settings: ATP interference assay
Description: To discard possible false-positive results, we performed an interference assay in parallel. […] […]. The ATP solution was made by dissolving ATP powder (ATP standard from the ATPlite 1 step assay kit, reference 6016731, Perkin Elmer) in culture medium. The positive control used was the Luciferase Inhibitor I Calbiochem (Merck, 119113) at 100 μM.

[3] = Cytotoxicity in HepG2 cells (intracellular ATP, ATPlite, 48 h); format: cell-based, human; settings: human, HepG2 cells; IC50 per ratio column head; unit inferred; read-out: Cytotoxicity in HepG2
[4] = tested on: P. falciparum asexual stages; settings: asexual stages; TCAMS data; read-out: IC50 asexual; cited from earlier work
[5] = Plasmodium falciparum, P. falciparum gametocytes, average, read-out: IC50 Pf Gametocytes average, IC50 (µM) average
[6] = sexual stages (gametocytes), dose-response, read-out: IC50 sexual

% Control luminiscence [2]: 100%
SMILES: Cc1cccc2nc(-c3ccc(-c4cccc(CN5CCC(CCN6CCCCC6)CC5)c4)s3)[nH]c12.O=C(O)C(F)(F)F [TCMDC-133923]
Ratio IC50 HepG2/IC50 P. falciparum [1]: 8
IC50 [1, 5]: 0.46 µM
IC50 ([1]; Plasmodium falciparum, sexual stages (gametocytes), dose-response, read-out: IC50 sexual): 0.463 µM
%_Inh ([1]; gametocytes, primary screen at 5 μM (S10 Table, MCSI analogs)): 107.301%
IC50 at 48 h [3]: 3870 nM
IC50 [4]: 140 nM

% Control luminiscence [2]: 100%
SMILES: Fc1ccc2[nH]c(-c3ccc(-c4ccc(CN5CCC(CCN6CCCCC6)CC5)cc4)s3)nc2c1 [TCMDC-133932]
Ratio IC50 HepG2/IC50 P. falciparum [1]: 27
IC50 [1, 5]: 0.14 µM
IC50 at 48 h [3]: 3790 nM
IC50 [4]: 142 nM

% Control luminiscence [2]: 100%
SMILES: FC(F)(F)c1ccc2[nH]c(-c3ccc(-c4cccc(CN5CCC(CCN6CCCCC6)CC5)c4)cc3)nc2c1 [TCMDC-133941]
Ratio IC50 HepG2/IC50 P. falciparum [1]: 6.67
IC50 [1, 5]: 0.51 µM
IC50 at 48 h [3]: 3400 nM
IC50 [4]: 153 nM

% Control luminiscence [2]: 100%
SMILES: CCc1ccc(CN2CCC(CNC(=O)c3cc(-c4cccc(F)c4)cs3)C2)cc1 (centres unmarked) [TCMDC-134432]
Ratio IC50 HepG2/IC50 P. falciparum [1]: 6
IC50 [1, 5]: 1.26 µM
IC50 [1, 6]: 1.26 µM
IC50 at 48 h [3]: 7220 nM
IC50 [4]: 1360 nM

% Control luminiscence [2]: 92%
SMILES: COc1ccc(-c2cnc3[nH]cc(-c4ccncc4)c3c2)cc1OC [TCMDC-135853]
Ratio IC50 HepG2/IC50 P. falciparum [1]: 3.46
IC50 [1, 5]: 0.9 µM
IC50 [1, 6]: 0.897 µM
IC50 at 48 h [3]: 3100 nM
IC50 [4]: 126 nM

% Control luminiscence [2]: 100%
SMILES: CN1CCN(CCCCNc2c3ccccc3nc3ccccc23)CC1 [TCMDC-137479]
Ratio IC50 HepG2/IC50 P. falciparum [1]: 2.57
IC50 [1, 5]: 1.32 µM
IC50 [1, 6]: 1.32 µM
IC50 at 48 h [3]: 3390 nM
IC50 [4]: 704 nM

% Control luminiscence [2]: 100%
SMILES: COc1ccc2nc(-c3ccccc3)cc(NCCCNc3cc(-c4ccccc4)nc4ccc(OC)cc34)c2c1.Cl [TCMDC-137734]
Ratio IC50 HepG2/IC50 P. falciparum [1]: 4.53
IC50 [1, 5]: 1.21 µM
IC50 [1, 6]: 1.21 µM
IC50 at 48 h [3]: 5500 nM
IC50 [4]: 122 nM

Second part, the compound before the results:

SMILES: Fc1ccc2[nH]c(-c3ccc(-c4ccc(CN5CCC(CCN6CCCCC6)CC5)cc4)cc3)nc2c1 [TCMDC-133924]
Ratio IC50 HepG2/IC50 P. falciparum [1]: 12
IC50 [1, 5]: 0.46 µM
% Control luminiscence [2]: 100%
IC50 at 48 h [3]: 5300 nM
IC50 [4]: 129 nM

SMILES: Cc1cccc2nc(-c3ccc(-c4ccc(CN5CCC(CCN6CCCCC6)CC5)cc4)cc3)[nH]c12 [TCMDC-133929]
Ratio IC50 HepG2/IC50 P. falciparum [1]: 14
IC50 [1, 5]: 0.27 µM
IC50 [1, 6]: 0.267 µM
% Control luminiscence [2]: 100%
IC50 at 48 h [3]: 3700 nM
IC50 [4]: 144 nM

SMILES: Fc1ccc2[nH]c(-c3cccc(-c4ccc(CN5CCC(CCN6CCCCC6)CC5)cc4)c3)nc2c1 [TCMDC-133940]
Ratio IC50 HepG2/IC50 P. falciparum [1]: 12
IC50 [1, 5]: 0.43 µM
IC50 [1, 6]: 0.433 µM
% Control luminiscence [2]: 100%
IC50 at 48 h [3]: 5200 nM
IC50 [4]: 142 nM

SMILES: FC(F)c1nc2ccccc2n1-c1nc(N2CCOCC2)nc(N2CCOCC2)n1 [TCMDC-137004]
Ratio IC50 HepG2/IC50 P. falciparum [1]: 0.291
IC50 [1, 5]: 5.44 µM
IC50 [1, 6]: 5.44 µM
% Control luminiscence [2]: 98%
IC50 at 48 h [3]: 1580 nM
IC50 [4]: 761 nM

SMILES: N=C(NCC1CC1c1ccccc1)c1cccc(C(=N)NCC2CC2c2ccccc2)n1 (centres unmarked) [TCMDC-137456]
Ratio IC50 HepG2/IC50 P. falciparum [1]: 15
IC50 [1, 5]: 0.45 µM
% Control luminiscence [2]: 100%
IC50 at 48 h [3]: 6800 nM
IC50 [4]: 1760 nM

SMILES: COc1cc2nc(N3CCN(C(=O)c4c(Cl)nsc4-c4ccccc4Cl)CC3)nc(N)c2cc1OC.O=C(O)C(F)(F)F [TCMDC-138186]
Ratio IC50 HepG2/IC50 P. falciparum [1]: 38
IC50 [1, 5]: 0.22 µM
IC50 [1, 6]: 0.215 µM
% Control luminiscence [2]: 100%
IC50 at 48 h [3]: 8180 nM
IC50 [4]: 534 nM

SMILES: COc1cc2nc(N3CCC(CNC(=O)c4ccc(-c5ccc(-c6noc(C)n6)cc5)cc4)CC3)nc(N)c2cc1OC [TCMDC-138754]
Ratio IC50 HepG2/IC50 P. falciparum [1]: 39
IC50 [1, 5]: 0.11 µM
% Control luminiscence [2]: 97%
IC50 at 48 h [3]: 4330 nM
IC50 [4]: 139 nM
